Patent US10759767B2 (priority 2012, dated 2020)
Like-named read-outs stand apart in the source and are kept apart here.

How the values were obtained:
[1] = system: Botrytis cinerea; assay: Microtest: activity against the grey mold Botrytis cinerea (Botrci); assay type: cell-based; settings: Botrytis cinerea, 168 h, read-out: Observed efficacy
[2] = system: Septoria tritici; assay: Microtest: activity against leaf blotch on wheat caused by Septoria tritici (Septtr); assay type: cell-based; settings: solo product
[3] = system: Leptosphaeria nodorum; assay: Microtest: activity against wheat leaf spots caused by Leptosphaeria nodorum (Leptno); assay type: cell-based; settings: Parastagonospora nodorum, 168 h, read-out: Observed efficacy
[4] = system: Phytophthora infestans; assay: microbe, parasite or virus in culture; assay type: cell-based; settings: Phytophthora infestans, 168 h, read-out: Observed efficacy
[5] = system: Pyricularia oryzae; assay: microbe, parasite or virus in culture; assay type: cell-based
[6] = system: Alternaria solani; assay: Microtest: activity against early blight caused by Alternaria solani (Alteso); assay type: cell-based; settings: Alternaria solani, 168 h, read-out: Observed efficacy
[7] = Pyricularia oryzae, 168 h, read-out: Observed efficacy

SMILES: CC(C)C(O)(Cn1cncn1)c1ccc(Oc2ccc(Cl)cc2)cc1C(F)(F)F (centres unmarked) [I-5, 2-[4-(4-chlorophenoxy)-2-(trifluoromethyl)phenyl]-3-methyl-1-(1,2,4-triazol-1-yl)butan-2-ol]
- inhibition of growth at […] ([1]; solo 0.063 ppm): 14%
- inhibition of growth at […] ([1]; solo 0.25 ppm): 27%
- inhibition of growth at 2.5e-07 ppm ([2]; Zymoseptoria tritici, 168 h, second Septtr microtest, 0.00000025 ppm, read-out: Observed efficacy): 5%
- inhibition of growth at 1e-06 ppm ([2]; Zymoseptoria tritici, 168 h, second Septtr microtest, 0.000001 ppm, read-out: Observed efficacy): 10%
- inhibition of growth at 1.6e-05 ppm ([2]; Zymoseptoria tritici, 168 h, 0.000016 ppm, read-out: Observed efficacy): 13%
- Observed efficacy ([2]; second Septtr microtest, 0.000016 ppm): 13%
- inhibition of growth at […] ([3]; solo 0.25 ppm): 19%
- inhibition of growth at 0.001 ppm ([3]; solo product, 0.001 ppm): 9%
- inhibition of growth at […] ([3]; solo product, 0.063 ppm): 20%
- inhibition of growth at 16 ppm [4]: 2%
- inhibition of growth at 63 ppm [4]: 45%
- melting point: 114 °C
- inhibition of growth at 0.001 ppm [5, 7]: 5%
- inhibition of growth at 0.004 ppm [5, 7]: 0%
- inhibition of growth at 0.016 ppm [5, 7]: 0%
- inhibition of growth at 1 ppm [5, 7]: 67%
- inhibition of growth at 4e-06 ppm ([6]; solo 0.000004 ppm): 8%
- inhibition of growth at 0.004 ppm ([6]; solo 0.004 ppm): 11%
- inhibition of growth at 0.016 ppm ([6]; solo 0.016 ppm): 10%
- inhibition of growth at […] ([6]; solo 0.063 ppm): 14%
- inhibition of growth at 1 ppm ([6]; solo 1 ppm): 49%

SMILES: CC#CC(O)(Cn1cncn1)c1ccc(Oc2ccc(Cl)cc2)cc1Cl (centres unmarked) [I-1, 2-[2-chloro-4-(4-chlorophenoxyl)phenyl]-1-(1,2,4-triazol-1-yl)pent-3-yn-2-ol]
- inhibition of growth at 1e-06 ppm ([1]; solo 0.000001 ppm): 4%
- inhibition of growth at 4e-06 ppm ([1]; solo 0.000004 ppm): 0%
- inhibition of growth at 1.6e-05 ppm ([1]; solo 0.000016 ppm): 1%
- inhibition of growth at 6.3e-05 ppm ([1]; solo 0.000063 ppm): 0%
- inhibition of growth at […] ([1]; solo 0.063 ppm): 16%
- inhibition of growth at 4e-06 ppm ([2]; Zymoseptoria tritici, 168 h, second Septtr microtest, 0.000004 ppm, read-out: Observed efficacy): 11%
- inhibition of growth at […] ([2]; Zymoseptoria tritici, 168 h, second Septtr microtest, 0.00063 ppm, read-out: Observed efficacy): 17%
- inhibition of growth at 6.3e-05 ppm ([2]; Zymoseptoria tritici, 168 h, 0.000063 ppm, read-out: Observed efficacy): 17%
- inhibition of growth at […] ([3]; solo 0.063 ppm): 19%
- inhibition of growth at 6.3e-05 ppm ([3]; solo product, 0.000063 ppm): 12%
- inhibition of growth at 16 ppm [4]: 0%
- melting point: 137 °C
- inhibition of growth at 0.001 ppm [5, 7]: 3%
- inhibition of growth at 0.016 ppm [5, 7]: 0%
- Observed efficacy ([5]; solo product, 0.016 ppm): 0%
- inhibition of growth at […] ([6]; solo 0.00025 ppm): 4%
- inhibition of growth at 0.001 ppm ([6]; solo 0.001 ppm): 10%
